Source: PMC9469095, “Toolkit of Approaches To Support Target-Focused Drug Discovery for Plasmodium falciparum Lysyl tRNA Synthetase” (ACS Infectious Diseases, 2022)

Legend:
[1] = target: T1, HsKRS (Homo sapiens, UniProt Q15046); test: biochemical; design: HsKRS lysine activation, pyrophosphate release with BIOMOL Green absorbance at 650 nm; conditions: read-out: HsKRS pIC50 (converted)
T1 construct: gene KARS1
Description: (§1) PfKRS assay wells contained PfKRS assay buffer (100 mM Hepes; pH 7.4, 100 mM NaCl, 20 mM MgCl2, 0.01% (v/v) Igepal and 1 mM DTT) plus 20 nM PfKRS, 200 μM ATP, 400 μM L-lysine, and 0.5 U/mL pyrophosphatase. HsKRS reactions contained HsKRS assay buffer (30 mM Tris; pH 8, 140 mM NaCl, 40 mM MgCl2, 30 mM KCl, 0.01% (v/v) Brij and 1 mM DTT) plus 400 nM HsKRS, 3.5 μM ATP, 6 μM L-lysine, and 0.5 U/mL pyrophosphatase. Assays were performed by adding 25 μL of assay buffer with enzyme to all assay wells, before the reaction was initiated with the addition of a 25 μL substrate mixture containing L-lysine, ATP, and pyrophosphatase (a substrate mix with L-lysine omitted was added to “no lysine” control wells on each assay plate). Following a 6 h (PfKRS) or 3 h (HsKRS) reaction at RT, the assay was stopped with the addition of 50 μL BIOMOL Green. The BIOMOL Green signal was allowed to develop for 30 min before the absorbance of each well was read at 650 nm using an EnVision multilabel plate reader (PerkinElmer Life Sciences) or a PheraStar plate reader (BMG). All [compound left out] dispensing steps were carried out using a Thermo Scientific WellMate dispenser (Matrix). To generate pIC50 data for hit compounds in the PfKRS or HsKRS assays, 10-point inhibitor dose–response curves were prepared in 384-well assay plates using an ECHO 550 acoustic dispenser (Labcyte). Following preparation of the inhibitor curves, assays were carried out as described above. ActivityBase from IDBS (version 8.0.5.4) was used for data processing and analysis, with percentage inhibition values determined relative to 100% inhibition (“no-lysine” control) and 0% inhibition control wells on each plate. All IC50 curve fitting was undertaken using ActivityBase XE (version 7.7.1) from IDBS. A four-parameter logistic dose–response curve was utilized (XLfit model 203) with prefit used for all four parameters.

[2] = target: T2, PfKRS (cytosolic lysyl tRNA synthetase) (Plasmodium falciparum, UniProt Q8IDJ8); test: biochemical; design: PfKRS lysine activation, pyrophosphate release with BIOMOL Green absorbance at 650 nm; conditions: read-out: PfKRS pIC50 (converted)
T2 construct: gene PF3D7_1350100
Description: as §1
Target sequence in this assay (Q8IDJ8 1-583): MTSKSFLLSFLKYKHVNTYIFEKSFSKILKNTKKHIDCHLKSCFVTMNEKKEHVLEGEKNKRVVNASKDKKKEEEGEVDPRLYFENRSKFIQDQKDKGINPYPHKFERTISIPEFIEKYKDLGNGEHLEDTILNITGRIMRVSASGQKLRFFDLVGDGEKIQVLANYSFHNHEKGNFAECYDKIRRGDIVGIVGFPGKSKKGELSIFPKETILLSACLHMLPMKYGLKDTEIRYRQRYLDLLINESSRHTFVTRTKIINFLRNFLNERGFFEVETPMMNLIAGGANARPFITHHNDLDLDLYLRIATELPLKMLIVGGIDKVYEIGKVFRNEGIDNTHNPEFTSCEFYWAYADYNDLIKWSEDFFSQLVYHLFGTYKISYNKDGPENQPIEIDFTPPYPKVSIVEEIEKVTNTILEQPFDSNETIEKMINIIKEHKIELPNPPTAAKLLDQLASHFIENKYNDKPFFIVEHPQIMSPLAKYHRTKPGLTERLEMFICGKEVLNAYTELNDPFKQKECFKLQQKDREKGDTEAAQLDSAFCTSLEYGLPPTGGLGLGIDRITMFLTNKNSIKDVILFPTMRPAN

[3] = target: T2, PfKRS (cytosolic lysyl tRNA synthetase); test: isothermal thermal proteome profiling at […] °C in P. falciparum lysate; assay type: cell-based
Target sequence in this assay (Q8IDJ8 entry or part of it): as the sequence (Q8IDJ8 1-583) above

T1 sequence (Q15046 whole entry): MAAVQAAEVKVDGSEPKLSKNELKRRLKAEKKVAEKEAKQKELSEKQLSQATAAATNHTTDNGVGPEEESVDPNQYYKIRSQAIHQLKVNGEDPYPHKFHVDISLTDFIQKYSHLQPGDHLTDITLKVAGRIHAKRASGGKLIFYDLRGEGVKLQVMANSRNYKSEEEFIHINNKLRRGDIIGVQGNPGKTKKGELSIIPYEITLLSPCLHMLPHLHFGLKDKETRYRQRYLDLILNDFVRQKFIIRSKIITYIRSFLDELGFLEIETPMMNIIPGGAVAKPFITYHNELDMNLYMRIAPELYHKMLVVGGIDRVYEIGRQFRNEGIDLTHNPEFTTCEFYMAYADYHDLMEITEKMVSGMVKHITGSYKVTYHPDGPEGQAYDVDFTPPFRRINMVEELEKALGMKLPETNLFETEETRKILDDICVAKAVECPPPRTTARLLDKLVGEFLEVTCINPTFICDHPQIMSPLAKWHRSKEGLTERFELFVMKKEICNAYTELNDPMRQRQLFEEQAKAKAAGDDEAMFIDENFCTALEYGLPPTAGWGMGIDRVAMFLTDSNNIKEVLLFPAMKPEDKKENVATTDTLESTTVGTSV

## O=C(NCC1(O)CCC(F)(F)CC1)c1cc(=O)c2cc(F)ccc2o1 [DDD01510706]
[1]
  IC50: 20000 nM
[2]
  IC50: 240 nM

## O=C(NCC1CCCCC1)c1cc(=O)c2cc(F)cc(NS(=O)(=O)c3ccccc3)c2o1 [DDD02354914]
[1]
  IC50: 6310 nM
[2]
  IC50: 11.7 nM

## C[C@H]1CCC[C@H](C[C@H]2Cc3cc(O)cc(O)c3C(=O)O2)O1 [cladosporin]
[3]
  isothermal thermal proteome profiling at 57 °C in P. falciparum lysate: The relative abundance of PfKRS was also significantly increased in lysates exposed to cladosporin
[1]
  IC50: > 100000 nM
[2]
  IC50: 47.9 nM

## [N-]=[N+]=NCCOCCOCCOCCNC(=O)c1ccc(S(=O)(=O)Nc2cc(F)cc3c(=O)cc(C(=O)NCC4CCCCC4)oc23)cc1 [linker 1]
[1]
  IC50: 43700 nM
[2]
  IC50: 22.4 nM
